Experimental data taken from the supplement of paper PMC10307832.

Legend:
Experiment in all cases: relative viability (nuclei count vs DMSO), 5 days (fraction); higher = more cells survive
MK-8033 + Alpelisib = compound: Cn1cc(-c2cnc3ccc4ccc(CS(=O)(=O)NCc5ccccn5)cc4c(=O)c3c2)cn1 [MK-8033] + Cc1nc(NC(=O)N2CCC[C@H]2C(N)=O)sc1-c1ccnc(C(C)(C)C(F)(F)F)c1 [Alpelisib] (partner 2 µM)
Outline: (§1)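 Relative viability divides the nuclei count in treated wells by that in vehicle wells. Lung cancer cell lines were seeded in 1536-well plates, dosed by pin tool the next day, and fixed and stained after 5 days in one step with final 0.05% Triton X-100, 1% formaldehyde and 1 ug/ml Hoechst. Dosing was a single drug or a fixed anchor-drug dose plus five library-drug doses (not always all listed) in √10 steps, and values are medians of duplicate plates imaged at 4×.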

MK-8033 + OSI-027 = compound: Cn1cc(-c2cnc3ccc4ccc(CS(=O)(=O)NCc5ccccn5)cc4c(=O)c3c2)cn1 [MK-8033] + COc1cccc2cc(-c3nc([C@H]4CC[C@H](C(=O)O)CC4)n4ncnc(N)c34)[nH]c12 [OSI-027] (partner 0.5 µM)
Outline: as §1

MK-8033 + Crizotinib = compound: Cn1cc(-c2cnc3ccc4ccc(CS(=O)(=O)NCc5ccccn5)cc4c(=O)c3c2)cn1 [MK-8033] + C[C@@H](Oc1cc(-c2cnn(C3CCNCC3)c2)cnc1N)c1c(Cl)ccc(F)c1Cl [Crizotinib] (partner 1 µM)
Outline: as §1

MK-8033 + Foretinib = compound: Cn1cc(-c2cnc3ccc4ccc(CS(=O)(=O)NCc5ccccn5)cc4c(=O)c3c2)cn1 [MK-8033] + COc1cc2c(Oc3ccc(NC(=O)C4(C(=O)Nc5ccc(F)cc5)CC4)cc3F)ccnc2cc1OCCCN1CCOCC1 [Foretinib] (partner 0.25 µM)
Outline: as §1

| Cell Line | relative viability (MK-8033 + Alpelisib; first compound 0.02 µM) | relative viability (MK-8033 + Alpelisib; first compound 0.06325 µM) | relative viability (MK-8033 + Alpelisib; first compound 0.2 µM) | relative viability (MK-8033 + Alpelisib; first compound 0.6325 µM) | relative viability (MK-8033 + Alpelisib; first compound 2 µM) | relative viability (MK-8033 + OSI-027; first compound 0.02 µM) | relative viability (MK-8033 + OSI-027; first compound 0.06325 µM) | relative viability (MK-8033 + OSI-027; first compound 0.2 µM) | relative viability (MK-8033 + OSI-027; first compound 0.6325 µM) | relative viability (MK-8033 + OSI-027; first compound 2 µM) | relative viability (MK-8033 + Crizotinib; first compound 0.02 µM) | relative viability (MK-8033 + Crizotinib; first compound 0.06325 µM) | relative viability (MK-8033 + Crizotinib; first compound 0.2 µM) | relative viability (MK-8033 + Crizotinib; first compound 0.6325 µM) | relative viability (MK-8033 + Crizotinib; first compound 2 µM) | relative viability (MK-8033 + Foretinib; first compound 0.02 µM) | relative viability (MK-8033 + Foretinib; first compound 0.06325 µM) | relative viability (MK-8033 + Foretinib; first compound 0.2 µM) | relative viability (MK-8033 + Foretinib; first compound 0.6325 µM) | relative viability (MK-8033 + Foretinib; first compound 2 µM) |
| --- | --- | --- | --- | --- | --- | --- | --- | --- | --- | --- | --- | --- | --- | --- | --- | --- | --- | --- | --- | --- |
| NCI-H650 | 1.08 | 1.1 | 1.01 | 1.16 | 1.17 | 0.539 | 0.527 | 0.491 | 0.503 | 0.554 | 0.648 | 0.753 | 1 | 0.778 | 0.712 | 1.06 | 1.08 | 1.02 | 1.02 | 1.02 |
| NCI-H661 | 0.581 | 0.261 | 0.634 | 0.592 | 0.778 | 0.727 | 0.656 | 0.687 | 0.699 | 0.668 | 0.991 | – | 1.02 | 0.948 | 0.903 | 1.04 | 0.995 | 0.997 | 0.919 | 0.985 |
| NCI-H727 | 0.502 | 0.615 | 0.589 | 0.577 | 0.589 | 0.667 | – | 0.652 | 0.583 | 0.551 | 0.811 | 0.677 | 0.754 | 0.886 | 0.792 | 0.817 | – | 0.859 | 0.685 | 1.06 |
| NCI-H838 | 1 | 0.979 | 0.94 | 0.98 | 0.974 | 0.374 | 0.368 | 0.361 | 0.407 | 0.412 | 0.807 | 0.757 | 0.884 | 0.804 | 0.787 | 1.05 | 0.993 | 0.994 | 0.89 | 0.954 |
| NCI-H1355 | 0.766 | 0.74 | 0.72 | 0.87 | 0.786 | 0.366 | 0.296 | 0.404 | 0.423 | 0.411 | 1.07 | 0.988 | 1.03 | 1.05 | 1.02 | 0.888 | 0.886 | 0.961 | 0.862 | 0.909 |
| NCI-H1437 | 0.966 | 0.905 | 0.883 | 0.941 | 0.956 | 1.03 | 0.849 | 0.808 | 0.839 | 0.83 | 1.04 | 0.723 | 0.545 | 0.877 | 0.918 | 1.21 | 1.3 | 1.19 | 1.23 | 1.19 |
| NCI-H1563 | 1.02 | 0.918 | 0.883 | 1.02 | 0.93 | 0.789 | 0.8 | 0.727 | 0.807 | 0.724 | 0.918 | 0.813 | 0.773 | 0.93 | 0.812 | 0.899 | 0.927 | 0.903 | 0.97 | 0.981 |
| NCI-H1651 | 0.888 | 0.808 | 0.931 | 0.898 | 0.982 | 0.735 | 0.541 | 0.757 | 0.646 | 0.699 | 0.852 | 0.832 | 0.846 | 0.938 | 0.862 | 0.844 | 0.637 | 0.879 | 0.692 | 0.648 |
